The subject of one test is σ1 receptor and the μ-opiod receptor. Description: μ and σ1 dual binding: combined class from the Ki of both radioligand assays. Set-up: species or system human; key to μ and σ1 dual binding: +: Both Ki-μ and Ki-σ1>=500 nM; ++: One Ki<500 nM while the other Ki is >=500 nM; +++: Both Ki-μ and Ki-σ1<500 nM; ++++: Both Ki-μ and Ki-σ1<100 nM. As to conditions: combined class for Ki-μ and Ki-σ1; transfected HEK-293 membranes (σ1), transfected CHO-K1 cell membranes (μ). How it is done:
To investigate binding properties of σ1 receptor ligands to human σ1 receptor, transfected HEK-293 membranes and [^3H](+)-pentazocine (Perkin Elmer, NET-1056), as the radioligand, were used. The assay was carried out with 7 μg of membrane suspension, 5 nM of [^3H](+)-pentazocine in either absence or presence of either buffer or 10 μM Haloperidol for total and non-specific binding, respectively. Binding buffer contained Tris-HCl 50 mM at pH 8. Plates were incubated at 37° C. for 120 minutes. After the incubation period, the reaction mix was then transferred to MultiScreen HTS, FC plates (Millipore), filtered and plates were washed 3 times with ice-cold 10 mM Tris-HCL (pH7.4). Filters were dried and counted at approximately 40% efficiency in a MicroBeta scintillation counter (Perkin-Elmer) using EcoScint liquid scintillation cocktail
To investigate binding properties of mu-opioid receptor ligands to human μ-opioid receptor, transfected CHO-K1 cell membranes and [^3H]-DAMGO (Perkin Elmer, ES-542-C), as the radioligand, were used. The assay was carried out with 20 μg of membrane suspension, 1 nM of [^3H]-DAMGO in either absence or presence of either buffer or 10 μM Naloxone for total and non-specific binding, respectively. Binding buffer contained Tris-HCl 50 mM, MgCl2 5 mM at pH 7.4. Plates were incubated at 27° C. for 60 minutes. After the incubation period, the reaction mix was then transferred to MultiScreen HTS, FC plates (Millipore), filtered and plates were washed 3 times with ice-cold 10 mM Tris-HCL (pH 7.4). Filters were dried and counted at approximately 40% efficiency in a MicroBeta scintillation counter (Perkin-Elmer) using EcoScint liquid scintillation cocktail.
The following scale as been adopted for representing the binding to the σ1 receptor and the μ-opiod receptor expressed as Ki: • + Both Ki-μ and Ki-σ1>=500 nM • ++ One Ki<500 nM while the other Ki is >=500 nM • +++ Both Ki-μ and Ki-σ1<500 nM • ++++ Both Ki-μ and Ki-σ1<100 nM
Turning to `CS(=O)(=O)Nc1cccc(C2CCN(Cc3cn(C4CCC(F)(F)CC4)nn3)CC2)c1` [Example 68, N-(3-(1-((1-(4,4-difluorocyclohexyl)-1H-1,2,3-triazol-4-yl)methyl)piperidin-4-yl)phenyl)methanesulfonamide], the “μ and σ1 dual binding” value is on record as “++”.

Turning to `CCC(=O)Nc1cccc(C2CCN(Cc3cn([C@@H]4c5ccccc5C[C@H]4O)nn3)CC2)c1` [Example 69, N-(3-(1-((1-((1R,2R)-2-hydroxy-2,3-dihydro-1H-inden-1-yl)-1H-1,2,3-triazol-4-yl)methyl)piperidin-4-yl)phenyl)propionamide], the “μ and σ1 dual binding” value is recorded as “++”.

Turning to `CC(=O)Nc1nc2ccc(C3CCN(Cc4cn(-c5ccccc5)nn4)CC3)cc2s1` [Example 74, N-(6-(1-((1-phenyl-1H-1-1,2,3-triazol-4-yl)methyl)piperidin-4-yl)benzo[d]thiazol-2-yl)acetamide], the “μ and σ1 dual binding” value is on record as “++”. The same measure, in the same setting: next, `CC(C)S(=O)(=O)Nc1cccc(C2CCN(Cc3cn(Cc4ccccn4)nn3)CC2)c1` [Example 81, N-(3-(1-((1-(pyridin-2-ylmethyl)-1H-1,2,3-triazol-4-yl)methyl)piperidin-4-yl)phenyl)propane-2-sulfonamide]: “++”; `CC(c1ccccn1)n1cc(CN2CCC(c3cccc(NS(C)(=O)=O)c3)CC2)nn1` (stereo not shown) [Example 86, N-(3-(1-((1-(1-(pyridin-2-yl)ethyl)-1H-1,2,3-triazol-4-yl)methyl)piperidin-4-yl)phenyl)methanesulfonamide]: “++”. Take `CS(=O)(=O)Nc1cc(C2CCN(Cc3cn(Cc4ccccc4)nn3)CC2)ccc1F` [Example 90, N-(5-(1-((1-benzyl-1H-1,2,3-triazol-4-yl)methyl)piperidin-4-yl)-2-fluorophenyl)methanesulfonamide]: the “μ and σ1 dual binding” value is reported as “++”.

Staying with this test, now noted: transfected HEK-293 membranes (σ1), transfected CHO-K1 cell membranes (μ).
As for `Oc1cccc(C2CCN(Cc3cn(-c4ccccc4O)nn3)CC2)c1` [Example 58, 2-(4-((4-(3-hydroxyphenyl)piperidin-1-yl)methyl)-1H-1,2,3-triazol-1-yl)phenol], the Ki range for both μ and σ1 (dual-binding class) was < 500 nM. On to `Oc1cccc(C2CCN(Cc3cn(-c4ccc(C(F)(F)F)nc4)nn3)CC2)c1` [Example 60, 3-(1-((1-(6-(trifluoromethyl)pyridin-3-yl)-1H-1,2,3-triazol-4-yl)methyl)piperidin-4-yl)phenol], for which the Ki range for both μ and σ1 (dual-binding class) was < 100 nM. On the same count and under the same terms, then `CO[C@@H]1Cc2ccccc2[C@H]1n1cc(CN2CCC(c3cccc(O)c3)CC2)nn1` [Example 61, 3-(1-((1-((1R,2R)-2-methoxy-2,3-dihydro-1H-inden-1-yl)-1H-1,2,3-triazol-4-yl)methyl)piperidin-4-yl)phenol], with < 100 nM; and `CS(=O)(=O)Nc1cccc(C2CCN(Cc3cn(-c4ccccc4)nn3)CC2)c1` [Example 62, N-(3-(1-((1-phenyl-1H-1,2,3-triazol-4-yl)methyl)piperidin-4-yl)phenyl)methanesulfonamide], with < 100 nM. The same measure, in the same setting: then `Oc1cccc(C2CCN(Cc3cn(Cc4cccc(F)c4)nn3)CC2)c1` [Example 63, 3-(1-((1-(3-fluorobenzyl)-1H-1,2,3-triazol-4-yl)methyl)piperidin-4-yl)phenol], with < 100 nM; and `Oc1cccc(C2CCN(Cc3cn(C4CCC(F)(F)CC4)nn3)CC2)c1` [Example 64, 3-(1-((1-(4,4-difluorocyclohexyl)-1H-1,2,3-triazol-4-yl)methyl)piperidin-4-yl)phenol], with < 100 nM. On the same count and under the same terms, next, `Oc1cccc(C2CCN(Cc3cn([C@H]4c5ccccc5C[C@@H]4O)nn3)CC2)c1` [Example 65, (1S,2S)-1-(4-((4-(3-hydroxyphenyl)piperidin-1-yl)methyl)-1H-1,2,3-triazol-1-yl)-2,3-dihydro-1H-inden-2-ol]: < 500 nM; `Oc1cccc(C2CCN(Cc3cn([C@@H]4CCCC[C@H]4O)nn3)CC2)c1` [Example 66, 3-(1-((1-((1R,2R)-2-hydroxycyclohexyl)-1H-1,2,3-triazol-4-yl)methyl)piperidin-4-yl)phenol]: < 500 nM; `OCC(c1ccccc1)n1cc(CN2CCC(c3cccc(O)c3)CC2)nn1` (stereo not shown) [Example 67, 3-(1-((1-(2-hydroxy-1-phenylethyl)-1H-1,2,3-triazol-4-yl)methyl)piperidin-4-yl)phenol]: < 500 nM. As to `Oc1cccc(C2CCN(Cc3cn([C@@H]4Cc5ccccc5[C@@H]4F)nn3)CC2)c1` [Example 71, 3-(1-((1-((1S,2R)-1-fluoro-2,3-dihydro-1H-inden-2-yl)-1H-1,2,3-triazol-4-yl)methyl)piperidin-4-yl)phenol], the Ki range for both μ and σ1 (dual-binding class) was < 100 nM. For `Oc1cccc(C2CCN(Cc3cn([C@@H]4Cc5ccccc5[C@H]4F)nn3)CC2)c1` [Example 72, 3-(1-((1-((1R,2R)-1-fluoro-2,3-dihydro-1H-inden-2-yl)-1H-1,2,3-triazol-4-yl)methyl)piperidin-4-yl)phenol], the Ki range for both μ and σ1 (dual-binding class) was < 100 nM. Regarding `CC(c1ccccn1)n1cc(CN2CCC(c3cccc(O)c3)CC2)nn1` (stereo not shown) [Example 75, 3-(1-((1-(1-(pyridin-2-yl)ethyl)-1H-1,2,3-triazol-4-yl)methyl)piperidin-4-yl)phenol], the Ki range for both μ and σ1 (dual-binding class) was < 500 nM. Same read-out and setting: then `CC(c1ccccc1)n1cc(CN2CCC(c3cccc(NS(C)(=O)=O)c3)CC2)nn1` (stereo not shown) [Example 76, N-(3-(1-((1-(1-phenylethyl)-1H-1,2,3-triazol-4-yl)methyl)piperidin-4-yl)phenyl)methanesulfonamide], with < 500 nM; and `Oc1cccc(C2CCN(Cc3cn([C@@H]4c5ccccc5C[C@H]4O)nn3)CC2)c1` [Example 78, (1R,2R)-1-(4-((4-(3-hydroxyphenyl)piperidin-1-yl)methyl)-1H-1,2,3-triazol-1-yl)-2,3-dihydro-1H-inden-2-ol], with < 500 nM; and `CC(C)S(=O)(=O)Nc1cccc(C2CCN(Cc3cn(Cc4ccccc4)nn3)CC2)c1` [Example 79, N-(3-(1-((1-benzyl-1H-1,2,3-triazol-4-yl)methyl)piperidin-4-yl)phenyl)propane-2-sulfonamide], with < 500 nM.

With `Oc1cccc(C2CCN(Cc3cn([C@H]4CC[C@@H](C(F)(F)F)CC4)nn3)CC2)c1` [Example 82, 3-(1-((1-((1s,4s)-4-(trifluoromethyl)cyclohexyl)-1H-1,2,3-triazol-4-yl)methyl)piperidin-4-yl)phenol], the Ki range for both μ and σ1 (dual-binding class) was < 100 nM.

`Oc1cccc(C2CCN(Cc3cn([C@H]4CC[C@H](C(F)(F)F)CC4)nn3)CC2)c1` [Example 83, 3-(1-((1-((1r,4r)-4-(trifluoromethyl)cyclohexyl)-1H-1,2,3-triazol-4-yl)methyl)piperidin-4-yl)phenol]: the Ki range for both μ and σ1 (dual-binding class) is < 100 nM.

Turning to `Oc1cccc(C2CCN(Cc3cn(-c4ccccn4)nn3)CC2)c1` [Example 84, 3-(1-((1-(pyridin-2-yl)-1H-1,2,3-triazol-4-yl)methyl)piperidin-4-yl)phenol], the Ki range for both μ and σ1 (dual-binding class) is < 100 nM.

As to `c1ccc(-n2cc(CN3CCC(c4cccc(-c5nnn[nH]5)c4)CC3)nn2)cc1` [Example 85, 4-(3-(1H-tetrazol-5-yl)phenyl)-1-((1-phenyl-1H-1,2,3-triazol-4-yl)methyl)piperidine], the Ki range for both μ and σ1 (dual-binding class) is ≥ 500 nM. Take `CS(=O)(=O)Nc1ccc(F)c(C2CCN(Cc3cn(Cc4ccccc4)nn3)CC2)c1` [Example 87, N-(3-(1-((1-benzyl-1H-1,2,3-triazol-4-yl)methyl)piperidin-4-yl)-4-fluorophenyl)methanesulfonamide]: the Ki range for both μ and σ1 (dual-binding class) was < 500 nM. The same measure, in the same setting: next, `Oc1cccc(C2CCN(Cc3cn([C@@H]4c5ccccc5C[C@@H]4O)nn3)CC2)c1` [Example 88, (1R,2S)-1-(4-((4-(3-hydroxyphenyl)piperidin-1-yl)methyl)-1H-1,2,3-triazol-1-yl)-2,3-dihydro-1H-inden-2-ol]: < 500 nM; `Oc1cccc(C2CCN(Cc3cn(-c4coc5ccccc45)nn3)CC2)c1` [Example 89, 3-(1-((1-(benzofuran-3-yl)-1H-1,2,3-triazol-4-yl)methyl)piperidin-4-yl)phenol]: < 100 nM.

The record behind these values is patent US9981942B2, “Piperidine derivatives having multimodal activity against pain” (LABORATORIOS DEL DR. ESTEVE S.A., priority 2013, dated 2018).
